Consider two compounds from paper PMC11674141, “Antimicrobial activity and synergistic effect of phage-encoded antimicrobial peptides with colistin and outer membrane permeabilizing agents against Acinetobacter baumannii” (PeerJ, 2024).

Data set [1] relates to A. baumannii ATCC19606.
Data set [2] has as its system A. baumannii ATCC19606. Put plainly: microbe, parasite or virus in culture. The conditions noted are these: Acinetobacter baumannii, ATCC19606, read-out: MIC alone.
The test system of the next data set is Klebsiella pneumoniae. Conditions: K. pneumoniae, sensitive.
Another data set relates to HepG2 cell line. As to the kind of experiment: MTT cell viability assay. The format is cell-based, human. On the set-up: key to Mean cell viability (Mean 2; control = 100): % viability relative to control (control = 100%). Conditions: for Mean cell viability (Mean 2; control = 100): mean of n = 3. As for the experimental part: We aimed to determine the effects of peptides on cell viability and proliferation in the human hepatocellular carcinoma HepG2 cell line. The MTT assay was performed as described by [Muangpat et al. (2022)] with some modifications. The cells were cultured in Dulbecco’s Modified Eagle Medium (DMEM; Sigma-Aldrich, St. Louis, MO, USA), supplemented with 10% fetal bovine serum (FBS), 100 U/ml penicillin, and 100 μg/ml streptomycin at 37 °C in 5% CO^2 and 95% humidity. The cells were seeded into a 96-well plate at a density of 1 × 10^4 cells/well and allowed to adhere overnight. Then, the cells were exposed for 24 h to various concentrations of peptides. The control cells were cultured in complete DMEM medium containing 0.2% DMSO. After the 24-h incubation period, 20 μL of MTT solution (5 mg/mL in PBS) (Tokyo Chemical Industry Co., Ltd., Tokyo, Japan) was added to each well and incubated for another 2 h at 37 °C. The culture medium was then removed, and formazan crystals formed by viable cells were dissolved in 100 μL of DMSO before measuring the absorbance at 590 nm using a microplate spectrophotometer. The effect of the peptide on cell viability was calculated as a percentage of the control, which was arbitrarily assigned a value of 100% viability. The percentage of cell viability was calculated relative to the control group. The IC₅₀ of the peptides was defined as the concentration that caused a 50% reduction in cell viability compared with the control. The MTT assay was conducted in three independent experiments, each with triplicate wells per condition.
Background: Tetrazolium dyes change colour on reduction, which living cells bring about.

The next data set relates to Staphylococcus aureus. The conditions noted are these: S. aureus, sensitive.
Another data set deals with Escherichia coli. Conditions: E. coli, sensitive.
In a further data set the test system is Bacillus subtilis. Conditions: B. subtilis, sensitive.
The test system of data set [3] is A. baumannii ATCC19606. Conditions: ATCC19606.
A further data set has as its system Pseudomonas aeruginosa. The conditions noted are these: P. aeruginosa, sensitive.
In data set [4] the test system is twenty biofilm-forming A. baumannii strains. Put plainly: Inhibition of biofilm formation (crystal violet). On the set-up: Percent biofilm forming inhibition: concentration or dose not given beside the values. The format is cell-based, Acinetobacter baumannii. The protocol: We determined the ability of peptides to inhibit biofilm formation in twenty biofilm-forming strains using the method described by [Karyne et al. (2020)] with some modifications. Briefly, biofilm-forming strains of A. baumannii were adjusted to an equivalent of the 0.5 McFarland standard in 2× Luria Bertani (LB) broth supplemented with 20% glucose. Then, 50 µL of A. baumannii and 50 µL of peptides were added. […] The plates were incubated overnight at 37 °C. After 24 h of incubation, the culture medium was gently removed, and the wells were washed three times with phosphate-buffered saline. The adherent cells were fixed with absolute methanol for 10 min, stained with 0.4% crystal violet for 15 min, and washed three times with sterile distilled water, then air-dried. The plates were then filled with 250 µL of 33% acetic acid for 15 min. The absorbance at OD595 nm was determined. All experiments were performed in three independent assays, each repeated in triplicate, and the percentage of biofilm reduction was calculated based on treated wells vs. non-treated wells.

Values after ≈ are worked out from the molar mass of the structure shown. Like-named read-outs stand apart in the source and are kept apart here. Where no end group is shown, it is not given here.

For `O=C(O)CC(O)(CC(=O)O)C(=O)O` [Citric acid, reference compound], the “MIC values of outer membrane permeabilizers and colistin” value in the data set on A. baumannii ATCC19606 [1] (A. baumannii 19606, microdilution, triplicate samples) stood at 5000 µg/mL. In the data set with A. baumannii ATCC19606 [2], the MIC was 5000 µg/mL (≈ 26 mM).

As to KIAIQIAIKGMLNGWFTGVGFRRKR [PE04-2], the “Minimum Inhibitory Concentration (MIC)” value was determined as 312.5 µg/mL with Klebsiella pneumoniae; 156.25 µg/mL in the data set on A. baumannii ATCC19606 [1] (A. baumannii 19606, sensitive); 39.06 µg/mL in the data set on Staphylococcus aureus; 156.25 µg/mL in the data set on Escherichia coli; 39.06 µg/mL in the data set with Bacillus subtilis; 78.12 µg/mL in the data set with MDR-AB, XDR-AB (strain AB003, MDR-AB). Further, the “Minimum Inhibitory Concentration (MIC)” value in the data set on MDR-AB, XDR-AB (strain AB183, XDR-AB) turned out to be 78.12 µg/mL; in the data set with MDR-AB, XDR-AB (strain AB329, XDR-AB), 156.25 µg/mL; in the data set with MDR-AB, XDR-AB (strain CR89, MDR-AB) it was 156.25 µg/mL; in the data set on Pseudomonas aeruginosa, 312.5 µg/mL. Moreover, the “IC50 (reduction of viable cells to 50%)” value in the data set with HepG2 cell line (24 h, three independent experiments) was determined as 424.1 µg/mL. The “Mean cell viability (Mean 2; control = 100)” value is on record as 90.16 in the data set with HepG2 cell line (peptide concentration 25 (unit not given)); 91.63 in the data set on HepG2 cell line (peptide concentration 50 (unit not given)); 79.64 in the data set on HepG2 cell line (peptide concentration 156.25 (unit not given)); 71.67 in the data set with HepG2 cell line (peptide concentration 300 (unit not given)); 32.89 in the data set with HepG2 cell line (peptide concentration 600 (unit not given)); 14.6 in the data set with HepG2 cell line (peptide concentration 800 (unit not given)). In addition, the MIC values with A. baumannii ATCC19606 [1] (A. baumannii 19,606, microdilution, MHB, 37 °C overnight, triplicate samples) worked out at 156.25 µg/mL. In addition, in the data set on A. baumannii ATCC19606 [1] (A. baumannii ATCC19606), the “MIC (ATCC19606)” value is 156.25 µg/mL. Besides, in the data set with A. baumannii ATCC19606 [3], the “FIC index, peptide plus colistin” value is 0.14. Further, in the data set on A. baumannii ATCC19606 [3], the FICI was determined as 0.25. Further, the “Percent biofilm forming inhibition” value was found to be 92.3659% in data set [4] (strain AB57, XDR-AB / CR-AB, 2013) and 88.4382% in [4] (strain AB263, MDR-AB, 2014). The “average percent inhibition of biofilm formation” value in [4] (twenty A. baumannii strains, peptide at MIC (312.5, 156.25, 156.25 µg/mL), 24 h, crystal violet OD595) was found to be 91.92%.
